Test [1] addresses T1, MAGL (Homo sapiens, UniProt Q99685).
T1 construct: human prefrontal cortex or cell membrane fractions for human assays; from tissue
T1 sequence (Q99685 1-303): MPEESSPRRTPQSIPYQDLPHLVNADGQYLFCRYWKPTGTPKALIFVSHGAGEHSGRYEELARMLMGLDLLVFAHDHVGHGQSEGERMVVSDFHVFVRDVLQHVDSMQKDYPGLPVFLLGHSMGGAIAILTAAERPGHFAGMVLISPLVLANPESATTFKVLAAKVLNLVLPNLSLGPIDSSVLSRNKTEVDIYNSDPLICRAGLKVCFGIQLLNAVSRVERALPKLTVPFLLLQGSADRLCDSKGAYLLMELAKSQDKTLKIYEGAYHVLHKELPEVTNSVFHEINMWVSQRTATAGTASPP
Put plainly: In vitro competitive activity-based protein profiling, human MAGL. It is filed as biochemical. The conditions noted are these: for inhibition at 10 µM: read-out: MAGL % inh. 10 μM (human); for inhibition at 1 µM: read-out: MAGL % inh. 1 μM (human). The protocol:
(§1) In Vitro Competitive Activity-Based Protein Profiling.
(§2) Proteomes (mouse brain membrane fraction or cell lysates for mouse assays; human prefrontal cortex or cell membrane fractions for human assays) (50 μL, 1.0 mg/mL total protein concentration) were preincubated with varying concentrations of inhibitors at 37° C. After 30 min, FP-Rh or HT-01 (1.0 μL, 50 μM in DMSO) was added and the mixture was incubated for another 30 min at 37° C. Reactions were quenched with SDS loading buffer (15 μL—4×) and run on SDS-PAGE. Following gel imaging, serine hydrolase activity was determined by measuring fluorescent intensity of gel bands corresponding to MAGL and FAAH using ImageJ 1.43u software.

In test [2] the target is T2, FAAH (Mus musculus, UniProt O08914).
T2 construct: mouse brain membrane fraction or cell lysates for mouse assays; from tissue
T2 sequence (O08914 1-579): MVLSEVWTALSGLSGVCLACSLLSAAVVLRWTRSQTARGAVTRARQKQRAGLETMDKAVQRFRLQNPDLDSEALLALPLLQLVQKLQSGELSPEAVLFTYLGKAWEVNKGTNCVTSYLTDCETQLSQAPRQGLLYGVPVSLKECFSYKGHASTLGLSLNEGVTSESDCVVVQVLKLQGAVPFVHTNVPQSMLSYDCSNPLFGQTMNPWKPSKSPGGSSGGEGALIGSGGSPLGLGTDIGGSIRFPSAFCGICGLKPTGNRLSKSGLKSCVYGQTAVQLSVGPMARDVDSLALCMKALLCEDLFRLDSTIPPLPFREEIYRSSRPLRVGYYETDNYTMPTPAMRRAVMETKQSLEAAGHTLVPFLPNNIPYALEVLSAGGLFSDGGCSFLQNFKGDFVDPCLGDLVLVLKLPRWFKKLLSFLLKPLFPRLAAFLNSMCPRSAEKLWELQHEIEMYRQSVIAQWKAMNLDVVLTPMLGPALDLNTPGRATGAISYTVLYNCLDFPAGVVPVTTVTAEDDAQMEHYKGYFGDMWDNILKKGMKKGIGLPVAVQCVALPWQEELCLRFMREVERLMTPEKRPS
Nature of the test: In vitro competitive activity-based protein profiling, mouse FAAH. It is filed as biochemical. As to conditions: for inhibition at 1 µM: read-out: FAAH % inh. 1 μM (mouse). The gist of the method: (§3)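 Activity measured as fluorescent gel-band intensity of MAGL and FAAH after SDS-PAGE. Before labelling with FP-Rh or HT-01 (30 min, 37 °C), proteomes at 1.0 mg/mL (mouse brain membrane or lysates; human prefrontal cortex or cell membranes) were exposed to varying inhibitor concentrations for 30 min at 37 °C.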

The target in test [3] is T3, MAGL (Mus musculus, UniProt O35678).
T3 construct: mouse brain membrane fraction or cell lysates for mouse assays; from tissue
T3 sequence (O35678 1-303): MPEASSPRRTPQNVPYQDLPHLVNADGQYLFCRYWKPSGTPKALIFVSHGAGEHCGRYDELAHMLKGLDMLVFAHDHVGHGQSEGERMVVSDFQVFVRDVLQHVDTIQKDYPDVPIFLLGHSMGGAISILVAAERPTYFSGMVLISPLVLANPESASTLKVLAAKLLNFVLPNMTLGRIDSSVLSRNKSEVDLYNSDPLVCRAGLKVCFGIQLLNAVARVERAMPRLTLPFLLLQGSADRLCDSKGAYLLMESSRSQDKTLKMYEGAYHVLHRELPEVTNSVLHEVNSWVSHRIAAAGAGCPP
Nature of the test: In vitro competitive activity-based protein profiling, mouse MAGL. The class given is biochemical. As to conditions: for inhibition at 1 µM: read-out: MAGL % inh. 1 μM (mouse). Summed up: as §3

The target in test [4] is T4, FAAH (Homo sapiens, UniProt O00519).
T4 construct: human prefrontal cortex or cell membrane fractions for human assays; from tissue
T4 sequence (O00519 1-579): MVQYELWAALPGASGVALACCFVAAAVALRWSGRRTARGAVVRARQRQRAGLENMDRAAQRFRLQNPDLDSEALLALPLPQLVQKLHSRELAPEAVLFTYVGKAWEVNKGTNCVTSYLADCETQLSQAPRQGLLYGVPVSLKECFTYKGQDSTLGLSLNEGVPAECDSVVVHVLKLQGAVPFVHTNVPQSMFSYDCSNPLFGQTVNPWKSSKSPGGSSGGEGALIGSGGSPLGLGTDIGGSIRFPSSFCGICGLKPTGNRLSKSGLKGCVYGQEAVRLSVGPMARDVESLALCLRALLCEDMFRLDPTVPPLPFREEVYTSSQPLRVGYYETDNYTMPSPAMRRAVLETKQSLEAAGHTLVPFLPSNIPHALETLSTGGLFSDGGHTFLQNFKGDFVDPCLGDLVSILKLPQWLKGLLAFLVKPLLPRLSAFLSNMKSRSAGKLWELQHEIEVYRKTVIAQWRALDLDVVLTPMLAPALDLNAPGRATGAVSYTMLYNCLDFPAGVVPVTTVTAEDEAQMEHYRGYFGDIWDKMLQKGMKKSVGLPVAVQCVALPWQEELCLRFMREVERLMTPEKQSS
Nature of the test: In vitro competitive activity-based protein profiling, human FAAH. It is filed as biochemical. The conditions noted are these: for inhibition at 10 µM: read-out: FAAH % inh. 10 μM (human); for inhibition at 1 µM: read-out: FAAH % inh. 1 μM (human). On the procedure: as §1, §2

For test [5], the target named is T3, MAGL. Put plainly: Mouse brain proteomes from inhibitor treated mice, MAGL. It is filed as in vivo. The conditions noted are these: oral gavage, brain 4 h after administration, read-out: MAGL % inh. 5 mg/kg (mouse). On the procedure:
Preparation of Mouse Brain Proteomes from Inhibitor Treated Mice.
Inhibitors were administered to wild-type C57Bl/6J by oral gavage in a vehicle of polyethylene glycol. Each animal was sacrificed 4 h following administration and brain proteomes were prepared and analyzed according to previously established methods (See Niphakis, M. J., et al. (2011) ACS Chem. Neurosci. and Long, J. Z., et al. Nat. Chem. Biol. 5:37-44).

With `O=C(c1cnn(C(=O)N2CC3CN(Cc4cccc(Oc5ccc(Cl)cc5)c4)CC3C2)c1)N1CCCC1` (stereo not drawn) [Example 190, (5-(3-(4-chlorophenoxy)benzyl)hexahydropyrrolo[3,4-c]pyrrol-2(1H)-yl)(4-(pyrrolidine-1-carbonyl)-1H-pyrazol-1-yl)methanone], the inhibition at 10 µM at MAGL [1] and on FAAH [4] was at least 75% in each case. In addition, the inhibition at 1 µM is at least 75% at FAAH [2] and 0 to 25% on MAGL [3].

In the case of `CN(Cc1ccccc1Cl)[C@H]1C[C@@H]2CN(C(=O)n3cc(C(=O)O)cn3)C[C@@H]2C1` [Example 183, 1-(trans-5-((2-chlorobenzyl)(methyl)amino)octahydrocyclopenta[c]pyrrole-2-carbonyl)-1H-pyrazole-4-carboxylic acid], the inhibition at 10 µM at MAGL [1] was at least 75%; on FAAH [4], 25 to 50%. The results for the inhibition at 1 µM on FAAH [2] and at MAGL [3] were 50 to 75% and 0 to 25%, respectively.

Take `O=C(O)c1cnn(C(=O)N2CCC3(CCN(Cc4cccc(Oc5ccccc5)c4)C3)C2)c1` (stereo not drawn) [Example 185, 1-(7-(3-phenoxybenzyl)-2,7-diazaspiro[4.4]nonane-2-carbonyl)-1H-pyrazole-4-carboxylic acid]: the results for the inhibition at 10 µM at MAGL [1] and on FAAH [4] were at least 75% and 25 to 50%, respectively. For the same compound, the inhibition at 1 µM at FAAH [2] is at least 75%; on MAGL [3] it was 0 to 25%.

Consider `O=C(O)c1cnn(C(=O)N2CC3CN(Cc4ccc(Cl)cc4)CC3C2)c1` (stereo not drawn) [Example 46, 1-(5-(4-chlorobenzyl)octahydropyrrolo[3,4-c]pyrrole-2-carbonyl)-1H-pyrazole-4-carboxylic acid], for which the figures for the inhibition at 10 µM at MAGL [1] and on FAAH [4] were at least 75% and 0 to 25%, respectively. Further, the inhibition at 1 µM at FAAH [2] is at least 75%; on MAGL [3], 0 to 25%.

For `O=C(O)c1cnn(C(=O)N2CC3CN(Cc4cc(N5CCCC5)cc(C(F)(F)F)c4)CC3C2)c1` (stereo not drawn) [Example 198, 1-(5-(3-(pyrrolidin-1-yl)-5-(trifluoromethyl)benzyl)octahydropyrrolo[3,4-c]pyrrole-2-carbonyl)-1H-pyrazole-4-carboxylic acid], the inhibition at 1 µM at MAGL [1] was 0 to 25%; at FAAH [2], at least 75%; on MAGL [3], 0 to 25%; at FAAH [4], at least 75%. Moreover, the figures for the inhibition at 10 µM on MAGL [1] and on FAAH [4] were at least 75% and 50 to 75%, respectively.

In the case of `CN(Cc1cccc(Oc2ccccc2)c1)[C@H]1C[C@@H]2CN(C(=O)n3cc(C(=O)O)cn3)C[C@@H]2C1` [Example 188, 1-(trans-5-(methyl(3-phenoxybenzyl)amino)octahydrocyclopenta[c]pyrrole-2-carbonyl)-1H-pyrazole-4-carboxylic acid], the inhibition at 10 µM was at least 75% on MAGL [1] and 50 to 75% at FAAH [4]. Further, the inhibition at 1 µM at FAAH [2] lay in the range of 50 to 75%; on MAGL [3], 0 to 25%.

Take `CN(Cc1ccc(N2CCCC2)cc1C(F)(F)F)[C@@H]1C[C@@H]2CN(C(=O)n3cc(C(N)=O)cn3)C[C@@H]2C1` [Example 220, 1-(cis-5-(methyl(4-(pyrrolidin-1-yl)-2-(trifluoromethyl)benzyl)amino)octahydrocyclopenta[c]pyrrole-2-carbonyl)-1H-pyrazole-4-carboxamide]: the inhibition at 1 µM at MAGL [1], at FAAH [2], on MAGL [3] and on FAAH [4] was 0 to 25% in each case. In addition, the inhibition at 10 µM on MAGL [1] and on FAAH [4] was at least 75% each time.

One may read the IC50 as the midpoint of a concentration-inhibition curve. For `Cc1cc(-c2ccccc2)ccc1CN1CCC2(CCN(C(=O)n3cc(Cl)cn3)C2)C1` (stereo not drawn) [Example 130, (4-chloro-1H-pyrazol-1-yl)(7-((3-methyl-[1,1′-biphenyl]-4-yl)methyl)-2,7-diazaspiro[4.4]nonan-2-yl)methanone], on FAAH [2], the half-maximal inhibitory concentration (IC50) is at most 100 nM and the inhibition at 1 µM is at least 75%. On MAGL [3], the concentration for half-maximal inhibition (IC50) was at most 100 nM and the inhibition at 1 µM is at least 75%. Moreover, the inhibition at 5 mg/kg on MAGL [5] is at least 75%.

In the case of `CN(Cc1ccccc1Cl)[C@H]1C[C@@H]2CN(C(=O)n3cc(C(N)=O)cn3)C[C@@H]2C1` [Example 96, 1-(trans-5-((2-chlorobenzyl)(methyl)amino)octahydrocyclopenta[c]pyrrole-2-carbonyl)-1H-pyrazole-4-carboxamide], on FAAH [2], the IC50 was at most 100 nM and the inhibition at 1 µM was at least 75%. In addition, at MAGL [3], the IC50 fell in the range of 100 to 1000 nM and the inhibition at 1 µM was at least 75%. For the same compound, on MAGL [5], the inhibition at 5 mg/kg is at least 75%.

On to `O=C(N1CC2CN(Cc3ccc(Cl)cc3)CC2C1)n1cc(Cl)cn1` (stereo not drawn) [Example 118, (4-chloro-1H-pyrazol-1-yl)(5-(4-chlorobenzyl)hexahydropyrrolo[3,4-c]pyrrol-2(1H)-yl)methanone], for which the half-maximal inhibitory concentration (IC50) is at most 100 nM at FAAH [2] and 100 to 1000 nM on MAGL [3]. In addition, the inhibition at 1 µM on FAAH [2] and on MAGL [3] was at least 75% in each case. The inhibition at 5 mg/kg on MAGL [5] was at least 75%.

On to `O=C(c1cnn(C(=O)N2CCC3(CCN(Cc4ccc(N5CCOCC5)cc4C(F)(F)F)C3)C2)c1)N1CCCC1` (stereo not drawn) [Example 50, (1-(7-(4-morpholino-2-(trifluoromethyl)benzyl)-2,7-diazaspiro[4.4]nonane-2-carbonyl)-1H-pyrazol-4-yl)(pyrrolidin-1-yl)methanone], for which, on FAAH [2], the IC50 was at most 100 nM and the inhibition at 1 µM was at least 75%. In addition, at MAGL [3], the half-maximal inhibitory concentration (IC50) fell in the range of 100 to 1000 nM and the inhibition at 1 µM was at least 75%. The inhibition at 5 mg/kg at MAGL [5] fell in the range of 0 to 25%.

Turning to `CN(Cc1ccc(C(F)(F)F)cc1)[C@@H]1C[C@@H]2CN(C(=O)n3cc(C(N)=O)cn3)C[C@@H]2C1` [Example 55, 1-(cis-5-(methyl(4-(trifluoromethyl)benzyl)amino)octahydrocyclopenta[c]pyrrole-2-carbonyl)-1H-pyrazole-4-carboxamide], the IC50 on FAAH [2] and on MAGL [3] was at most 100 nM each time. Also, the inhibition at 1 µM on FAAH [2] and on MAGL [3] was at least 75% throughout. Also, the inhibition at 5 mg/kg at MAGL [5] was at least 75%.

The values are drawn from US10385057B2, “Pyrazole compounds and methods of making and using same” (Lundbeck La Jolla Research Center, Inc., priority 2015, dated 2019).
